The values that follow come from ChEMBL document CHEMBL4673257, “Azepino-indazoles as calcitonin gene-related peptide (CGRP) receptor antagonists” (Bioorg Med Chem Lett, 2021).

Molecules are shown by their SMILES. pIC50, pKi: −log10 of the molar value.

Data set [1] has as its target T1, Calcitonin gene-related peptide type 1 receptor (Homo sapiens, UniProt O60894+Q16602). The experiment in a line: Antagonist activity at human CGRP receptor.
Data set [2] is described as follows: Protein binding human plasma assessed as unbound fraction. The class given is ADME, cell-free.
The subject of data set [3] is Callithrix jacchus. Description: Antimigraine activity in human CGRPalpha-induced migraine marmoset model assessed as reduction in facial blood flow at 5 mg/kg, sc administered 30 mins after CGRP stimulation and measured after 105 mins by laser doppler method relative to control. Also noted: scale not given: the % may be the effect or the level left. The following applies: time 135 min, 2.25 h. The class given is functional.

A short description of data set [4]: Metabolic stability in human liver microsomes assessed as half life. It is filed as ADME, Microsome. (Microsomes from liver hold many membrane-bound enzymes, among them those of drug oxidation.)
The subject of data set [5] is Callithrix jacchus. Description: Antimigraine activity in human CGRPalpha-induced migraine marmoset model assessed as reduction in facial blood flow at 5 mg/kg, sc administered 30 mins after CGRP stimulation and measured after 60 mins by laser doppler method relative to control. The class given is functional. The arrangement: scale not given: the % may be the effect or the level left. The following applies: time 90 min, 1.5 h.

For data set [6], the target named is T1, Calcitonin gene-related peptide type 1 receptor. Description: Antagonist activity at human CGRP receptor in human SK-N-MC cells assessed as inhibition of CGRP-induced cAMP production. The class given is functional, cell-based.
A short description of data set [7]: Metabolic stability in dog liver microsomes assessed as half life. It is filed as ADME, Canis lupus familiaris, Microsome.
Data set [8] can be described thus: Oral bioavailability in rat at 10 mg/kg. It is filed as ADME, organism-based. Particulars: in vivo.
Data set [9] can be described thus: Metabolic stability in monkey liver microsomes assessed as half life. It is filed as ADME, Macaca mulatta, Microsome. Particulars: rhesus monkey.
In data set [10] the test system is Callithrix jacchus. The experiment in a line: Antimigraine activity in human CGRPalpha-induced migraine marmoset model assessed as reduction in facial blood flow at 5 mg/kg, sc administered 30 mins after CGRPalpha stimulation measured after 15 mins by laser doppler method relative to control. The class given is functional. The arrangement: scale not given: the % may be the effect or the level left. The following applies: time 45 min, 0.75 h.

Data set [11] is described as follows: Metabolic stability in rat liver microsomes assessed as half life. It is filed as ADME, Microsome.

The term pKi denotes the negative decadic logarithm of the Ki, by convention in mol/L. Broadly, the fraction unbound is the share of the substance not bound to proteins or other matrix. As a reminder, the half-life is the time in which the quantity being followed falls by half. A word on the pIC50: it is the IC50 on a negative log10 scale, so that one unit is a factor of ten. One may read the bioavailability as dose-corrected exposure relative to a reference, in per cent.

T1 sequence (Q16602 whole entry, one chain of several): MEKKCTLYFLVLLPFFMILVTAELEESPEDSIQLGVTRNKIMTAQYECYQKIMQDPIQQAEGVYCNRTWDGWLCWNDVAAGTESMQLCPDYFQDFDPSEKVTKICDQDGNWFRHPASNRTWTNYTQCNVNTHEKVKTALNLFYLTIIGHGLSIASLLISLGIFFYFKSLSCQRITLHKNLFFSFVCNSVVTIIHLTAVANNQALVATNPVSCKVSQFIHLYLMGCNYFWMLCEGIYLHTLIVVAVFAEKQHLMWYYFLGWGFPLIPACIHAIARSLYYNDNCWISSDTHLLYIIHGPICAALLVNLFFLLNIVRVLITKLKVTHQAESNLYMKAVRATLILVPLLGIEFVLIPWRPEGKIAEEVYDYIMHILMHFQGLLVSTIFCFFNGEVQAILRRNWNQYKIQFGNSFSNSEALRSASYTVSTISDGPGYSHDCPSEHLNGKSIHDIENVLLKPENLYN

Consider `O=C(C[C@@H]1Cc2cc(Cl)c3[nH]ncc3c2CN(CC(F)(F)F)C1=O)N1CCC(N2Cc3ccccc3NC2=O)CC1`, for which, in data set [1], the pKi is 9.64.

Take `O=C(N[C@@H]1Cc2cc(Cl)c3[nH]ncc3c2CN(Cc2ccccc2)C1=O)N1CCC(N2Cc3ccccc3NC2=O)CC1`: the pKi in data set [1] is 9.00.

Take `CC(C)N1Cc2c(ccc3[nH]ncc23)C[C@@H](NC(=O)N2CCC(N3Cc4ccccc4NC3=O)CC2)C1=O`: the negative-log Ki (pKi) in data set [1] was 7.23.

Take `O=C(C[C@@H]1Cc2cc(Cl)c3[nH]ncc3c2CN(CC(F)(F)F)C1=O)N1CCC(N2CCc3cccc(F)c3NC2=O)CC1`: the pKi in data set [1] is 8.04.

On to `O=C(C[C@@H]1Cc2cc(Cl)c3[nH]ncc3c2CN(CC(F)(F)F)C1=O)N1CCC(N2CCc3ccccc3NC2=O)CC1`, for which the fraction unbound in data set [2] stood at 0.028. Further, the Activity worked out at 47% with Callithrix jacchus [3], 41% with Callithrix jacchus [5] and 27% in the data set with Callithrix jacchus [10]. For the same compound, the half-life is 3.6 min in data set [4], 3.1 min in [7], 2.4 min in data set [9] and 2.2 min in data set [11]. Also, in [6], the pIC50 is 9.57. In addition, the bioavailability in [8] stood at 17%. For the same compound, the pKi in data set [1] is 10.00.

For the compound `CC(C)(C)CN1Cc2c(ccc3[nH]ncc23)C[C@@H](NC(=O)N2CCC(N3Cc4ccccc4NC3=O)CC2)C1=O`, the negative logarithm of the Ki (pKi) in data set [1] was 8.31.

Consider `CC(C)CN1Cc2c(ccc3[nH]ncc23)C[C@@H](NC(=O)N2CCC(N3Cc4ccccc4NC3=O)CC2)C1=O`, for which the pKi in data set [1] was 7.85.

Consider `CN1Cc2c(ccc3[nH]ncc23)C[C@@H](NC(=O)N2CCC(N3Cc4ccccc4NC3=O)CC2)C1=O`, for which, in data set [1], the pKi is 6.43.

Consider `O=C(N[C@@H]1Cc2ccc3[nH]ncc3c2CN(CCc2ccncc2)C1=O)N1CCC(N2Cc3ccccc3NC2=O)CC1`, for which, in data set [1], the pKi is 8.15.

As to `O=C(N[C@@H]1Cc2ccc3[nH]ncc3c2CN(Cc2ccncc2)C1=O)N1CCC(N2Cc3ccccc3NC2=O)CC1`, the pKi in data set [1] was 7.66.

In the case of `O=C(C[C@@H]1Cc2cc(Cl)c3[nH]ncc3c2CN(CC(F)(F)F)C1=O)N1CCC(c2cc3cccc(F)c3[nH]c2=O)CC1`, the pKi in data set [1] was 8.22.

As to `CC(C)(C)CN1Cc2c(cc(Cl)c3[nH]ncc23)C[C@@H](NC(=O)N2CCC(N3Cc4ccccc4NC3=O)CC2)C1=O`, the pKi in data set [1] was 8.82.

As for `O=C(N[C@@H]1Cc2ccc3[nH]ncc3c2CN(C2CCNCC2)C1=O)N1CCC(N2Cc3ccccc3NC2=O)CC1`, the negative logarithm of the Ki (pKi) in [1] was 6.54.

Take `O=C(C[C@@H]1Cc2cc(Cl)c3[nH]ncc3c2CN(CC(F)(F)F)C1=O)N1CCC(n2c(=O)[nH]c3ccccc32)CC1`: the pKi in [1] is 8.48.

`CN(C)CCN1Cc2c(ccc3[nH]ncc23)C[C@@H](NC(=O)N2CCC(N3Cc4ccccc4NC3=O)CC2)C1=O`: the pKi in data set [1] was 6.77.

`CC(C)(C)CN1Cc2c(cc(Cl)c3[nH]ncc23)C[C@@H](CC(=O)N2CCC(c3cc4ccccc4[nH]c3=O)CC2)C1=O` gave a bioavailability in data set [8] of 4.5%. For the same compound, the pKi in [1] is 9.12.

On to `O=C(N[C@@H]1Cc2ccc3[nH]ncc3c2CN(Cc2ccccc2)C1=O)N1CCC(N2Cc3ccccc3NC2=O)CC1`, for which the pKi in data set [1] is 7.92.

Consider `O=C(C[C@@H]1Cc2cc(Cl)c3[nH]ncc3c2CN(CC(F)(F)F)C1=O)N1CCC(c2cc3ccccc3[nH]c2=O)CC1`, for which the bioavailability in data set [8] is 3.4%. Further, the negative logarithm of the Ki (pKi) in [1] is 9.27.

Compound `O=C(C[C@@H]1Cc2cc(Cl)c3[nH]ncc3c2CN(CC(F)(F)F)C1=O)N1CCC(n2c(=O)[nH]c3ncccc32)CC1` came in with a bioavailability in data set [8] of 5.5%. Moreover, in data set [1], the pKi is 10.05.

Compound `CC(C)(C)CN1Cc2c(cc(Cl)c3[nH]ncc23)C[C@@H](CC(=O)N2CCC(N3Cc4ccccc4NC3=O)CC2)C1=O` had a bioavailability in data set [8] of 1.8%. Further, the pKi in [1] was 9.39.

Turning to `O=C(N[C@@H]1Cc2ccc3[nH]ncc3c2CN(CCN2CCOCC2)C1=O)N1CCC(N2Cc3ccccc3NC2=O)CC1`, the pKi in [1] is 7.30.

For `CC(C)(C)CN1Cc2c(cc(Cl)c3[nH]ncc23)C[C@@H](CC(=O)N2CCC(N3Cc4cccc(F)c4NC3=O)CC2)C1=O`, the bioavailability in data set [8] was determined as 4.7%. For the same compound, in [1], the pKi is 9.51.

In data set [8], `CC(C)(C)CN1Cc2c(cc(Cl)c3[nH]ncc23)C[C@@H](CC(=O)N2CCC(c3cc4cccc(F)c4[nH]c3=O)CC2)C1=O` showed a bioavailability of 12%. The pKi in data set [1] is 8.22.
